Drawing on PubChem BioAssay AID1259407 (Chemical Carcinogenesis Research Information System (CCRIS), 2018), this text covers mutagenic call for seven molecules.

Structures are written as SMILES. Activity calls are given as the source filed them. No rule for the calls is given here.

This series has as its system CCRIS mutagenicity, Ames/micronucleus/aberration tests. The experiment in a line: CCRIS mutagenicity studies.
Setting [1] is: Test System: AMES SALMONELLA TYPHIMURIUM, Strain/Indicator: TA98, Metabolic Activation: NONE, Method: PREINCUBATION
[2] abbreviates: Test System: AMES SALMONELLA TYPHIMURIUM, Strain/Indicator: TA100, Metabolic Activation: HAMSTER, LIVER, S-9, AROCLOR 1254 (10%), Method: PREINCUBATION
Where [3] appears, read: Test System: AMES SALMONELLA TYPHIMURIUM, Strain/Indicator: TA100, Metabolic Activation: NONE, Method: PREINCUBATION
The mark [4] stands for this setting: Test System: AMES SALMONELLA TYPHIMURIUM, Strain/Indicator: TA100, Metabolic Activation: RAT, LIVER, S-9, AROCLOR 1254 (10%), Method: PREINCUBATION
The mark [5] stands for this setting: Test System: AMES SALMONELLA TYPHIMURIUM, Strain/Indicator: TA1535, Metabolic Activation: HAMSTER, LIVER, S-9, AROCLOR 1254 (10%), Method: PREINCUBATION
[6] abbreviates: Test System: AMES SALMONELLA TYPHIMURIUM, Strain/Indicator: TA1535, Metabolic Activation: NONE, Method: PREINCUBATION
[7] abbreviates: Test System: AMES SALMONELLA TYPHIMURIUM, Strain/Indicator: TA1535, Metabolic Activation: RAT, LIVER, S-9, AROCLOR 1254 (10%), Method: PREINCUBATION
The mark [8] stands for this setting: Test System: AMES SALMONELLA TYPHIMURIUM, Strain/Indicator: TA98, Metabolic Activation: NONE, Method: STANDARD PLATE.
Where [9] appears, read: Test System: AMES SALMONELLA TYPHIMURIUM, Strain/Indicator: TA98, Metabolic Activation: RAT, LIVER, S-9, AROCLOR 1254, Method: STANDARD PLATE.
The mark [10] stands for this setting: Test System: AMES SALMONELLA TYPHIMURIUM, Strain/Indicator: TA100, Metabolic Activation: NONE, Method: STANDARD PLATE.
Where [11] appears, read: Test System: AMES SALMONELLA TYPHIMURIUM, Strain/Indicator: TA100, Metabolic Activation: RAT, LIVER, S-9, AROCLOR 1254, Method: STANDARD PLATE.
[12] abbreviates: Test System: AMES SALMONELLA TYPHIMURIUM, Strain/Indicator: TA1535, Metabolic Activation: NONE, Method: STANDARD PLATE.
The mark [13] stands for this setting: Test System: AMES SALMONELLA TYPHIMURIUM, Strain/Indicator: TA1535, Metabolic Activation: RAT, LIVER, S-9, AROCLOR 1254, Method: STANDARD PLATE.
The mark [14] stands for this setting: Test System: AMES SALMONELLA TYPHIMURIUM, Strain/Indicator: TA1537, Metabolic Activation: NONE, Method: STANDARD PLATE.
Where [15] appears, read: Test System: AMES SALMONELLA TYPHIMURIUM, Strain/Indicator: TA1537, Metabolic Activation: RAT, LIVER, S-9, AROCLOR 1254, Method: STANDARD PLATE.
The mark [16] stands for this setting: Test System: AMES SALMONELLA TYPHIMURIUM, Strain/Indicator: TA1538, Metabolic Activation: NONE, Method: STANDARD PLATE.
Setting [17] is: Test System: AMES SALMONELLA TYPHIMURIUM, Strain/Indicator: TA1538, Metabolic Activation: RAT, LIVER, S-9, AROCLOR 1254, Method: STANDARD PLATE.

Regarding `Oc1c(Cl)c(Cl)cc(Cl)c1Cl`, the mutagenic call was “inactive; negative” (End Point: IN VITRO CHROMOSOMAL ABERRATIONS, Test System: CHINESE HAMSTER LUNG CELLS (CHL), Metabolic Activation: NONE); “active; positive (structural changes)” (End Point: IN VITRO CHROMOSOMAL ABERRATIONS, Test System: CHINESE HAMSTER LUNG CELLS (CHL), Metabolic Activation: RAT, LIVER, S-9, KC-400); “inactive; negative” (End Point: IN VITRO CHROMOSOMAL ABERRATIONS, Test System: CHINESE HAMSTER OVARY CELLS (CHO), Metabolic Activation: NONE); “active; positive (structural changes)” (End Point: IN VITRO CHROMOSOMAL ABERRATIONS, Test System: CHINESE HAMSTER OVARY CELLS (CHO), Metabolic Activation: RAT, LIVER, S-9, AROCLOR 1254); “inactive; negative” (Test System: AMES SALMONELLA TYPHIMURIUM, Strain/Indicator: TA97, Metabolic Activation: HAMSTER, LIVER, S-9, AROCLOR 1254 (10%), Method: PREINCUBATION); “inactive; negative” (Test System: AMES SALMONELLA TYPHIMURIUM, Strain/Indicator: TA97, Metabolic Activation: HAMSTER, LIVER, S-9, AROCLOR 1254 (30%), Method: PREINCUBATION). Besides, the mutagenic call (Test System: AMES SALMONELLA TYPHIMURIUM, Strain/Indicator: TA97, Metabolic Activation: NONE, Method: PREINCUBATION) is “inactive; negative”; the mutagenic call (Test System: AMES SALMONELLA TYPHIMURIUM, Strain/Indicator: TA97, Metabolic Activation: RAT, LIVER, S-9, AROCLOR 1254 (10%), Method: PREINCUBATION) is “inactive; negative”; the mutagenic call (Test System: AMES SALMONELLA TYPHIMURIUM, Strain/Indicator: TA97, Metabolic Activation: RAT, LIVER, S-9, AROCLOR 1254 (30%), Method: PREINCUBATION) was “inactive; negative”; the mutagenic call (Test System: AMES SALMONELLA TYPHIMURIUM, Strain/Indicator: TA98, Metabolic Activation: HAMSTER, LIVER, S-9, AROCLOR 1254 (10%), Method: PREINCUBATION) is “inactive; negative”; the mutagenic call (Test System: AMES SALMONELLA TYPHIMURIUM, Strain/Indicator: TA98, Metabolic Activation: HAMSTER, LIVER, S-9, AROCLOR 1254 (30%), Method: PREINCUBATION) was “inactive; negative”; the mutagenic call under setting [1] was “inactive; negative”. The mutagenic call is “inactive; negative” (Test System: AMES SALMONELLA TYPHIMURIUM, Strain/Indicator: TA98, Metabolic Activation: RAT, LIVER, S-9, AROCLOR 1254 (10%), Method: PREINCUBATION); “inactive; negative” (Test System: AMES SALMONELLA TYPHIMURIUM, Strain/Indicator: TA98, Metabolic Activation: RAT, LIVER, S-9, AROCLOR 1254 (30%), Method: PREINCUBATION); “inactive; negative” under setting [2]; “inactive; negative” (Test System: AMES SALMONELLA TYPHIMURIUM, Strain/Indicator: TA100, Metabolic Activation: HAMSTER, LIVER, S-9, AROCLOR 1254 (30%), Method: PREINCUBATION); “inactive; negative” under setting [3]; “inactive; negative” under setting [4]. The mutagenic call was “inactive; negative” (Test System: AMES SALMONELLA TYPHIMURIUM, Strain/Indicator: TA100, Metabolic Activation: RAT, LIVER, S-9, AROCLOR 1254 (30%), Method: PREINCUBATION); “inactive; negative” under setting [5]; “inactive; negative” (Test System: AMES SALMONELLA TYPHIMURIUM, Strain/Indicator: TA1535, Metabolic Activation: HAMSTER, LIVER, S-9, AROCLOR 1254 (30%), Method: PREINCUBATION); “inactive; negative” under setting [6]; “inactive; negative” under setting [7]; “inactive; negative” (Test System: AMES SALMONELLA TYPHIMURIUM, Strain/Indicator: TA1535, Metabolic Activation: RAT, LIVER, S-9, AROCLOR 1254 (30%), Method: PREINCUBATION).

Consider `CCN(CC)C(=S)SSC[C@H](NC(C)=O)C(=O)O`, for which the mutagenic call by setting is: under setting [1], “inactive; negative”; under setting [8], “inactive; negative”; (Test System: AMES SALMONELLA TYPHIMURIUM, Strain/Indicator: TA98, Metabolic Activation: RAT, LIVER, S-9, AROCLOR 1254, Method: PREINCUBATION) “inactive; negative”; under setting [9], “inactive; negative”; under setting [3], “inactive; negative”; under setting [10], “inactive; negative”. Further, the mutagenic call runs as follows: (Test System: AMES SALMONELLA TYPHIMURIUM, Strain/Indicator: TA100, Metabolic Activation: RAT, LIVER, S-9, AROCLOR 1254, Method: PREINCUBATION) “inactive; negative”; under setting [11], “inactive; negative”.

On to `CN(C)c1ccc(N=Nc2cccnc2)cc1`, for which the mutagenic call under setting [8] was “inactive; negative”; the mutagenic call under setting [9] was “inactive; negative”; the mutagenic call under setting [10] is “inactive; negative”; the mutagenic call under setting [11] is “inactive; negative”; the mutagenic call under setting [12] is “inactive; negative”; the mutagenic call under setting [13] was “inactive; negative”. In addition, the mutagenic call is “inactive; negative” under setting [14], “inactive; negative” under setting [15], “inactive; negative” under setting [16] and “inactive; negative” under setting [17].

Take `O=[N+]([O-])C1=Cc2cc3cc4ccccc4cc3c3cccc1c23`: the mutagenic call under setting [8] is “active; positive”; the mutagenic call under setting [9] is “active; positive”; the mutagenic call under setting [10] was “inactive; negative”; the mutagenic call under setting [11] was “inactive; negative”; the mutagenic call under setting [12] is “inactive; negative”; the mutagenic call under setting [13] was “inactive; negative”. The mutagenic call is “active; positive” under setting [14], “active; positive” under setting [15], “active; positive” under setting [16] and “inactive; negative” under setting [17].

Consider `BrCC1CO1` (stereo not drawn), for which the mutagenic call under setting [2] is “active; positive”; the mutagenic call under setting [3] is “active; positive”; the mutagenic call under setting [4] is “active; positive”; the mutagenic call under setting [5] was “active; positive”; the mutagenic call under setting [6] was “active; positive”; the mutagenic call under setting [7] is “active; positive”.

For `Br/C=C/Br`, the mutagenic call reads like this: (Test System: AMES SALMONELLA TYPHIMURIUM, Strain/Indicator: TA97, Metabolic Activation: NONE, Method: STANDARD PLATE) “inactive; negative”; (Test System: AMES SALMONELLA TYPHIMURIUM, Strain/Indicator: TA97, Metabolic Activation: RAT, LIVER, S-9, AROCLOR 1254, Method: STANDARD PLATE) “active; positive”; under setting [8], “active; positive”; under setting [9], “active; positive”; under setting [10], “active; positive”; under setting [11], “active; positive”. In addition, the mutagenic call is “inactive; negative” (Test System: AMES SALMONELLA TYPHIMURIUM, Strain/Indicator: TA104, Metabolic Activation: NONE, Method: STANDARD PLATE) and “active; positive” (Test System: AMES SALMONELLA TYPHIMURIUM, Strain/Indicator: TA104, Metabolic Activation: RAT, LIVER, S-9, AROCLOR 1254, Method: STANDARD PLATE).

`CC1CNC(=O)N1c1ncc([N+](=O)[O-])s1` (stereo not drawn): the mutagenic call was “active; positive” under setting [8] and “active; positive” under setting [10].
